According to article PMC10786919, “Design-rules for stapled peptides with in vivo activity and their application to Mdm2/X antagonists” (Nature Communications, 2024):
Values after ≈ are worked out from the molar mass of the structure shown. Read-outs that look alike come from different tables or passages of the source. Positions of bridges follow the written chain, without caps; N, C: chain ends. Non-standard residues stand in square brackets, D forms with d. Residues, ends and D or L forms follow the SMILES beside them. Lys(N3) = [N-]=[N+]=NCCCC[C@H](N)C(=O)O; R8 = C=CCCCCCC[C@@](C)(N)C(=O)O; Cba = N[C@@H](CC1CCC1)C(=O)O; S5 = C=CCCC[C@](C)(N)C(=O)O; Ahx = NCCCCCC(=O)O; βAla = NCCC(=O)O

Assays:
[1] = Experimental LogD (partition coefficient); conditions: not stated, Partition Coeff LogD
[2] = Solubility assay (kinetic solubility, PBS pH 7); assay type: physicochemical; conditions: pH 7, aqueous buffer, kinetic from dmso stock, pH 7, PBS; read-out: Solubility
Outline: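 Next, measure peak areas of sample and standard. Finally, multiply their ratio by the standard concentration to obtain solubility (µM).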

[3] = Nanoclick permeability assay
Outline: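 Azido-peptide permeability was read as loss of NanoBRET signal (donor 450 nm, acceptor 610 nm) after adding NanoBret618-azide at 10 μM final.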

[4] = Lactate dehydrogenase (LDH) release assay; assay type: cell-based
Outline: (§1)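 HCT116 cells stably carrying a p53-responsive β-lactamase reporter were seeded at 8000 cells per well with a final DMSO level of 0.5%. Membrane integrity was assessed by lactate dehydrogenase release using a homogeneous fluorometric kit. Values are geometric means of at least three biological replicates.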

HCT116 cells = assay: Lactate dehydrogenase (LDH) release assay; assay type: cell-based
Outline: as §1

[5] = 0% FBS 4Hr, read-out: LDH: Cytotoxicity assay EC50
[6] = 4 hours, 0% serum, read-out: LDH Cytotoxicity assay EC50

## CC(=O)N[C@@H](CCCCN=[N+]=[N-])C(=O)NCCC(=O)N[C@@H](C)C(=O)N[C@H](C(=O)N[C@@H](Cc1ccccc1)C(=O)N[C@]1(C)CCCCCCC=CCCC[C@@](C)(C(=O)N[C@@H](C)C(=O)N[C@@H](C)C(=O)N[C@@H](C)C(N)=O)NC(=O)[C@H](CC2CCC2)NC(=O)[C@H](CCC(N)=O)NC(=O)[C@H](C)NC(=O)[C@H](Cc2c[nH]c3ccccc23)NC(=O)[C@H](Cc2ccc(O)cc2)NC(=O)[C@H](CCC(=O)O)NC1=O)[C@@H](C)O [MP-960, AZIDE-ATSP-7041 (L1A,S12A)] (Ac-[Lys(N3)][βAla]ATF[R8]EYWAQ[Cba][S5]AAA-NH2; staple 6-13)
physchem
  EPSA: 221 A^2
[1]
  logD: 2.76
[2]
  solubility kinetic: 102 µM (≈ 194 µg/mL)
[3]
  cell entry EC50: 286 nM
[4]; [5]
  EC50: > 50000 nM
HCT116 cells; 0% FBS 4Hr
  LDH: Cytotoxicity assay % Effect: 17.36%

## CC(=O)N[C@@H](CCCCN=[N+]=[N-])C(=O)NCCC(=O)N[C@@H](CC(C)C)C(=O)N[C@@H](C)C(=O)N[C@@H](Cc1ccccc1)C(=O)N[C@]1(C)CCCCCCC=CCCC[C@@](C)(C(=O)N[C@@H](C)C(=O)N[C@@H](C)C(=O)N[C@@H](C)C(N)=O)NC(=O)[C@H](CC2CCC2)NC(=O)[C@H](CCC(N)=O)NC(=O)[C@H](C)NC(=O)[C@H](Cc2c[nH]c3ccccc23)NC(=O)[C@H](Cc2ccc(O)cc2)NC(=O)[C@H](CCC(=O)O)NC1=O [MP-963, AZIDE-ATSP-7041 (T2A,S12A)] (Ac-[Lys(N3)][βAla]LAF[R8]EYWAQ[Cba][S5]AAA-NH2; staple 6-13)
physchem
  EPSA: 220 A^2
[1]
  logD: 2.97
[2]
  solubility kinetic: 100 µM (≈ 192 µg/mL)
[3]
  cell entry EC50: 177 nM
[4]; [5]
  EC50: > 50000 nM
HCT116 cells; 0% FBS 4Hr
  LDH: Cytotoxicity assay % Effect: 11.69%
HCT116 cells; 0% FBS 16Hr
  LDH: Cytotoxicity assay % Effect: -0.52%

## CC(=O)N[C@@H](CCCCN=[N+]=[N-])C(=O)NCCC(=O)N[C@@H](CCCCN)C(=O)N[C@H](C(=O)N[C@@H](Cc1ccccc1)C(=O)N[C@]1(C)CCCCCCC=CCCC[C@@](C)(C(=O)N[C@@H](CO)C(=O)N[C@@H](C)C(=O)N[C@@H](C)C(N)=O)NC(=O)[C@H](CC2CCC2)NC(=O)[C@H](CCC(N)=O)NC(=O)[C@H](C)NC(=O)[C@H](Cc2c[nH]c3ccccc23)NC(=O)[C@H](Cc2ccc(O)cc2)NC(=O)[C@H](CCC(=O)O)NC1=O)[C@@H](C)O [MP-546, AZIDE-ATSP-7041 (L1K)]
physchem
  EPSA: 229 A^2
[1]
  logD: 2.85
[2]
  solubility kinetic: 2 µM (≈ 3.97 µg/mL)
[3]
  cell entry EC50: 210 nM
[4]; [5]
  EC50: > 50000 nM
HCT116 cells; 0% FBS 4Hr
  LDH: Cytotoxicity assay % Effect: 34.42%
HCT116 cells; 0% FBS 16Hr
  LDH: Cytotoxicity assay % Effect: 13.56%

## CC(=O)N[C@@H](CCCCN=[N+]=[N-])C(=O)NCCC(=O)N[C@@H](CC(C)C)C(=O)N[C@H](C(=O)N[C@@H](Cc1ccccc1)C(=O)N[C@]1(C)CCCCCCC=CCCC[C@@](C)(C(=O)N[C@@H](CO)C(=O)N[C@@H](C)C(=O)N[C@@H](C)C(N)=O)NC(=O)[C@H](CC2CCC2)NC(=O)[C@H](CCCCN)NC(=O)[C@H](C)NC(=O)[C@H](Cc2c[nH]c3ccccc23)NC(=O)[C@H](Cc2ccc(O)cc2)NC(=O)[C@H](CCC(=O)O)NC1=O)[C@@H](C)O [MP-550, AZIDE-ATSP-7041 (Q9K)]
physchem
  EPSA: 217 A^2
[1]
  logD: 3.08
[2]
  solubility kinetic: 4 µM (≈ 7.88 µg/mL)
[3]
  cell entry EC50: 437 nM
[4]; [5]
  EC50: > 50000 nM
HCT116 cells; 0% FBS 4Hr
  LDH: Cytotoxicity assay % Effect: 7.145%
HCT116 cells; 0% FBS 16Hr
  LDH: Cytotoxicity assay % Effect: 4.1%

## CC(=O)N[C@@H](CCCCN=[N+]=[N-])C(=O)N[C@@H](CCCCN)C(=O)NCCCCCC(=O)N[C@H](C(=O)N[C@@H](CO)C(=O)N[C@@H](Cc1ccccc1)C(=O)N[C@]1(C)CCCCCCC=CCCC[C@@](C)(C(=O)N[C@@H](CCC(=O)O)C(=O)N[C@@H](CC(N)=O)C(=O)N[C@@H](Cc2ccccc2)C(N)=O)NC(=O)[C@H](CC(C)C)NC(=O)[C@H](CC(C)C)NC(=O)[C@H](C)NC(=O)[C@H](Cc2c[nH]c3ccccc23)NC(=O)[C@H](Cc2ccc(O)cc2)NC(=O)[C@H](CCC(=O)O)NC1=O)[C@@H](C)O [MP-084] (Ac-[Lys(N3)]K[Ahx]TSF[R8]EYWALL[S5]ENF-NH2; staple 7-14)
physchem
  EPSA: 187 A^2
[1]
  logD: 2.56
[2]
  solubility kinetic: 2 µM (≈ 4.5 µg/mL)
[3]; Nanoclick permeability assay EC50
  cell entry EC50: 74.5 nM
[4]; LDH: Cytotoxicity assay EC50
  EC50: > 50700 nM
HCT116 cells
  LDH: Cytotoxicity assay % Effect: 0.08783%

## CC(=O)N[C@@H](CCCCN=[N+]=[N-])C(=O)NCCC(=O)N[C@@H](C)C(=O)N[C@H](C(=O)N[C@@H](Cc1ccccc1)C(=O)N[C@]1(C)CCCCCCC=CCCC[C@@](C)(C(=O)N[C@@H](CO)C(=O)N[C@@H](C)C(=O)N[C@@H](C)C(N)=O)NC(=O)[C@H](CC2CCC2)NC(=O)[C@H](CCC(N)=O)NC(=O)[C@H](C)NC(=O)[C@H](Cc2c[nH]c3ccccc23)NC(=O)[C@H](Cc2ccc(O)cc2)NC(=O)[C@H](CCC(=O)O)NC1=O)[C@@H](C)O [MP-952, AZIDE-ATSP-7041 (L1A)]
physchem
  EPSA: 223 A^2
[1]
  logD: 2.73
[2]
  solubility kinetic: 109 µM (≈ 210 µg/mL)
[3]
  cell entry EC50: 192 nM
[4]; [5]
  EC50: > 50000 nM
HCT116 cells; 0% FBS 4Hr
  LDH: Cytotoxicity assay % Effect: 11.9%
HCT116 cells; 0% FBS 16Hr
  LDH: Cytotoxicity assay % Effect: 8.95%

## CC(=O)N[C@@H](CCCCN=[N+]=[N-])C(=O)NCCC(=O)N[C@@H](CC(C)C)C(=O)N[C@@H](C)C(=O)N[C@@H](Cc1ccccc1)C(=O)N[C@]1(C)CCCCCCC=CCCC[C@@](C)(C(=O)N[C@@H](CO)C(=O)N[C@@H](C)C(=O)N[C@@H](C)C(N)=O)NC(=O)[C@H](CC2CCC2)NC(=O)[C@H](C)NC(=O)[C@H](C)NC(=O)[C@H](Cc2c[nH]c3ccccc23)NC(=O)[C@H](Cc2ccc(O)cc2)NC(=O)[C@H](CCC(=O)O)NC1=O [MP-962, AZIDE-ATSP-7041 (T2A,Q9A)] (Ac-[Lys(N3)][βAla]LAF[R8]EYWAA[Cba][S5]SAA-NH2; staple 6-13)
physchem
  EPSA: 216 A^2
[1]
  logD: 2.96
[2]
  solubility kinetic: 77.5 µM (≈ 146 µg/mL)
[3]
  cell entry EC50: 77.6 nM
[4]; [5]
  EC50: > 50000 nM
HCT116 cells; 0% FBS 4Hr
  LDH: Cytotoxicity assay % Effect: 4.327%

## CC(=O)N[C@@H](CCCCN=[N+]=[N-])C(=O)NCCC(=O)N[C@@H](CC(C)C)C(=O)N[C@H](C(=O)N[C@@H](Cc1ccccc1)C(=O)N[C@]1(C)CCCCCCC=CCCC[C@@](C)(C(=O)N[C@@H](CO)C(=O)N[C@@H](C)C(=O)N[C@@H](C)C(N)=O)NC(=O)[C@H](CC2CCC2)NC(=O)[C@H](CCC(N)=O)NC(=O)[C@H](C)NC(=O)[C@H](Cc2c[nH]c3ccccc23)NC(=O)[C@H](Cc2ccc(O)cc2)NC(=O)[C@H](CCCCN)NC1=O)[C@@H](C)O [MP-548, AZIDE-ATSP-7041 (E5K)]
physchem
  EPSA: 213 A^2
[1]
  logD: 3.25
[2]
  solubility kinetic: 5 µM (≈ 9.85 µg/mL)
[3]
  cell entry EC50: 1020 nM
[4]; [5]
  EC50: 12300 nM
[4]; [6]
  EC50: 12200 nM
HCT116 cells; 0% FBS 4Hr
  LDH: Cytotoxicity assay % Effect: 84.33%
HCT116 cells; 0% FBS 16Hr
  LDH: Cytotoxicity assay % Effect: 14.03%

## CC(=O)N[C@@H](CCCCN=[N+]=[N-])C(=O)NCCC(=O)N[C@@H](CC(C)C)C(=O)N[C@H](C(=O)N[C@@H](Cc1ccccc1)C(=O)N[C@]1(C)CCCCCCC=CCCC[C@@](C)(C(=O)N[C@@H](CO)C(=O)N[C@@H](C)C(=O)N[C@@H](C)C(N)=O)NC(=O)[C@H](CC2CCC2)NC(=O)[C@H](CCC(N)=O)NC(=O)[C@H](CCCCN)NC(=O)[C@H](Cc2c[nH]c3ccccc23)NC(=O)[C@H](Cc2ccc(O)cc2)NC(=O)[C@H](CCC(=O)O)NC1=O)[C@@H](C)O [MP-549, AZIDE-ATSP-7041 (A8K)]
physchem
  EPSA: 220 A^2
[1]
  logD: 2.75
[2]
  solubility kinetic: 4.5 µM (≈ 9.12 µg/mL)
[3]
  cell entry EC50: 233 nM
[4]; [5]
  EC50: > 50000 nM
HCT116 cells; 0% FBS 4Hr
  LDH: Cytotoxicity assay % Effect: 7.105%
HCT116 cells; 0% FBS 16Hr
  LDH: Cytotoxicity assay % Effect: 45.26%

## CC(=O)N[C@@H](CCCCN=[N+]=[N-])C(=O)NCCC(=O)N[C@@H](C)C(=O)N[C@H](C(=O)N[C@@H](Cc1ccccc1)C(=O)N[C@]1(C)CCCCCCC=CCCC[C@@](C)(C(=O)N[C@@H](CO)C(=O)N[C@@H](C)C(=O)N[C@@H](C)C(N)=O)NC(=O)[C@H](CC2CCC2)NC(=O)[C@H](C)NC(=O)[C@H](C)NC(=O)[C@H](Cc2c[nH]c3ccccc23)NC(=O)[C@H](Cc2ccc(O)cc2)NC(=O)[C@H](CCC(=O)O)NC1=O)[C@@H](C)O [MP-959, AZIDE-ATSP-7041 (L1A,Q9A)] (Ac-[Lys(N3)][βAla]ATF[R8]EYWAA[Cba][S5]SAA-NH2; staple 6-13)
physchem
  EPSA: 218 A^2
[1]
  logD: 2.79
[2]
  solubility kinetic: 106 µM (≈ 197 µg/mL)
[3]
  cell entry EC50: 126 nM
[4]; [5]
  EC50: 976 nM
[4]; [6]
  EC50: 980 nM
HCT116 cells; 0% FBS 4Hr
  LDH: Cytotoxicity assay % Effect: 12.11%
HCT116 cells; 0% FBS 16Hr
  LDH: Cytotoxicity assay % Effect: 5.8%
